Measured values as given in patent US20260364186A1, “Chemical Conjugates, Compositions, and Methods of Preparation and Use Thereof” (Transfection Holdings Limited, priority 2022, published 2026).
“Also recorded” adds a separate entry of the source. One block for each compound: values may come before it.

Tests used:
[1] = tested on: NZM11 melanoma cancer cell line; test: FACS uptake of BODIPY FL conjugates, 50 nM, 5 min (Example 1); type: cell-based, human
Method: FIG. 1. Conjugate compounds coupled to BODIPY FL were tested for uptake using 50 nM each conjugate and 5 minute incubation with HEM (human epidermal melanocytes) and melanoma cell line NZM11 (BRAF V600E mutant metastatic melanoma). Mean fluorescent intensities (MFI). For these tests, n=300-500, mean±SD. Results were from a single experiment done in triplicate. Cells were sorted by FACS.
Materials and methods: NZM11 is an adherent metastatic melanoma cell derived from a patient with a subcutaneous lesion on their mid back. This human metastatic melanoma is identified with code CBA-1398 from Cell bank Australia. […] Cells of NZM11 diluted in MEMα media and cells of HEMnDP (primary melanocyte cell line) diluted in media 254 were left to settle in 96-wells microplate for 48 hours. 10 μL of 10 mM stock solutions in DMSO from 138 and pantothenic acid/pantothenic acid derivatives coupled to BODIPY were diluted with HBSS to afford 100 nM solution. Then, 100 nM compounds and DMSO solutions were diluted 1:1 with MEMα media for NZM11 and media 254 for HEMnDP to afford 50 nM solutions. After the 48 hour settle time, media was removed from the cells and 200 μL of 50 nM media solutions were poured to each well and incubated for 5 minutes at 37 °C. […] The FACS results output represented the mean of the fluorescence intensities (in arbitrary units) measured for cells sorted in every sample

[2] = tested on: mouse embryonic fibroblasts MEF; test: FACS uptake of BODIPY FL conjugates (Example 4); type: cell-based; conditions: 200 nM, 5 min, S enantiomer vs R
Method: FIG. 4B: Conjugate compounds coupled to BODIPY FL were tested for uptake using 200 nM each conjugate and 5 minute incubation with mouse embryonic fibroblasts MEF. Mean fluorescent intensities (MFI). 1,000 cells were sorted by FACS.
Fibroblasts are ubiquitous mesenchymal cells that are thought to play important roles in wound repair and healing, and serve as reservoirs of multipotent progenitors capable of repopulating depleted cell compartments. Primary mouse embryonic fibroblast (MEF) cultures consist of highly heterogeneous populations of distinct cell types. Singhal, P. K., et al., 2016. MEF cells have a limited growth capacity and on prolonged passaging spontaneously immortalize at a low frequency. In contrast to transformation of primary MEF cells that requires the presence of two cooperating oncogenes, immortalised MEF cells can be transformed by a single oncogene (Ras) resulting in a loss of contact inhibition, anchorage-independent growth, and tumour formation in nude mice. Studies of MEF cells have played an important role in the elucidation of the molecular mechanisms underlying cellular immortalization, transformation, and tumorigenesis. Additionally, utilization of MEF cells disrupted for specific genes has provided a powerful tool to analyse the genetic regulation of these cellular processes. Sun and Taneja, 2007. […]

[3] = tested on: NZM011, NZM009, NZM012, NZM022 and NZM077 cells; test: Flow cytometry uptake into metastatic melanoma lines (Example 11); type: cell-based, human; conditions: 200 nM, 30 minutes, five cell lines
Method: FIG. 11: Uptake for compounds 124, 126, and 132 at 200 nM and 30 minute incubation with melanoma cell lines: NZM12 (NZM012) (BRAF V600E mutant metastatic melanoma, homozygous deletion CDKN2A and low invasive cell line), NZM77 (NZM077) (BRAF V600E mutant metastatic melanoma and missense NF1), NZM22 (NZM022) (BRAF G466A mutant metastatic melanoma, P53 241S/T mutant, NF1 non-frameshift insertion and PTEN epigenetic silencing). NZM9 (NZM009) (P53 179C/T mutant and homozygous silencing CDKN2A). NZM11 (NZM011) (BRAF V600E mutant metastatic melanoma and homozygous deletion CDKN2A), as positive control. Mean fluorescent intensities (MFI). 1,500-2,000 cells were obtained. Bars represent mean±SD. Results are from a single experiment done in triplicate. Cells were analysed by FACS.
Methods: For screening, NZM011, NZM009, NZM012, NZM022 and NZM077 cells were suspended at 250 cells per μL in MEMα media and 200 μL was dispensed into 96 well plates. The cells were left to settle for 24 hours for NZM011, NZM012 and NZM077 and 48 hours for NZM009 and NZM022 at 37 °C, 5% O2, 5% CO2. Before addition to the cells, 10 μL of 10 mM stock solutions in DMSO of compounds 124, 126, and 132 were diluted with 1% FBS MEMα media to give a 200 nM solution.
After the appropriate settle time, the media was removed from the 96 well plates and 200 μL of 200 nM conjugate solutions and DMSO control were dispensed to each well (in triplicate) and incubated for 30 minutes at 37 °C, 5% O2, 5% CO2. After 30 minutes, the media was removed and cells washed with PBS. Next, 100 μL of TrypLE trypsin (ThermoFisher Scientific) was added to each well and incubated for 5 minutes at 37 °C. After this, 150 μL of MEMα media (plus 1% FBS for NZM011, NZM012 and NZM077; plus 5% FBS for NZM009 and NZM022) were added. Cells were analysed by flow cytometry using a FACS biosort and FITC filter. Flow cytometry results represent the mean of the fluorescence intensities (in arbitrary units) measured for cells sorted in every sample.

Jurkat cells = test: Flow cytometry time course of uptake (Example 12); type: cell-based, human; conditions: 200 nM
Method: FIG. 12: Time course of uptake for compounds 124, 126, and 132 at 200 nM after 5, 30 or 60 minute incubation with Jurkat cells. Mean fluorescent intensities (MFI). 1,000 cells were sorted by FACS. Bars represent mean±SD. Results represents a single experiment done in triplicate.
Materials and methods: For this study, 7.7×10^5 Jurkat cells were centrifuged for 5 minutes at 2500 RPM. The supernatant was removed and the cells were diluted in RPMI media (supplemented with 1% FBS+1% penicillin-streptomycin) to 400 cells/μL. Next, 28 μL of 100 μM stock solutions from compound 124, 126, or 132 were diluted with 6972 μL of RPMI media (supplemented with 1% FBS+1% penicillin-streptomycin) to give a 400 nM solution. Following this, 250 μL of conjugate solutions (giving a 200 nM final concentration) and 250 μL of cell suspensions were then added to each well in a 96 well plate. In addition, 250 μL of media only was added to the DMSO control wells. Incubation was carried out for 5, 30 and 60 minutes at 37 °C in triplicate wells for each compound and time point.
After incubation, cells were centrifuged for 1.5 minutes at 5000 RCF. Supernatant was removed and the cell pellet re-suspended in 200 μL fresh RPMI media, transferred to 96 well-plate and each cell suspension analysed by flow cytometry. Flow cytometry results represent the mean of the fluorescence intensities (in arbitrary units) measured for cells sorted in every sample.

[4] = tested on: NZM11 (BRAF V600E mutant metastatic melanoma) cells; test: Sulforhodamine B (SRB) assay of viability / proliferation, auranofin conjugates (Example 8); type: cell-based, human; conditions: 200 μM, 48 hours
Method: FIG. 8: Effect of 136 and 137 (auranofin conjugates) on viability of NZM11 melanoma cells. Cells were incubated with 136 and 137 at 10 μM final concentration and kept at 37 °C for 48 hours. Pantothenic acid (PA), CJ-15,801, and biotin were tested at 200 μM final concentration. […] Two batches of auranofin were tested at 10 μM final concentration.
FIG. 9: The viability data from FIG. 8 was normalised to the treatment plate and DMSO control and plotted as a percentage of cell growth. Individual data points represent technical replicates. Curve indicates non-linear regression slope, which allows determination of IC50 values.
Materials and methods: NZM11 cells were cultured in MEMα media with an initial count of 1020 cells/μL. The cells were then diluted to get 25 cells per μL and 200 μL of this suspension (5000 cells per well), dispensed into 96 well plates and left to settle for 24 hours. 10 mM stock solutions of 136, 137, and auranofin were diluted with 1% FBS MEMα media to give 10 nM, 30 nM, 100 nM, 300 nM, 1 μM, 3 μM, 10 μM, 30 μM and 100 μM solutions. After 24 hours the media was removed from the 96 well plates. To individual wells 200 μL of each dilution were dispensed in triplicate for three groups (136, 137, and auranofin): 1% FBS MEMα media only (DMSO control), 10 nM, 30 nM, 100 nM, 300 nM, 1 μM, 3 μM, 10 μM, 30 μM and 100 μM. The cells were incubated at 37 °C, 5% 02 and 5% CO2 for 48 hours.
In order to test the potency of 136 and 137, the IC50 values were calculated for these auranofin conjugates. For analysis of the treatment plate (Tz) a SRB assay was utilised. For this assay, 50 μL of 50% (w/v) ice-cold trichloroacetic acid (TCA) was added to each well. To achieve this, 5 g of TCA was made up to 10 mL with milliQ H2O. This was cooled on ice. Incubation was carried out for 1 hour at 4 °C to fix cells. TCA and media were removed from cells. Five milliQ washes were carried out and the plate was left to air dry. Next, 50 μL of 0.4% SRB solution (prepared in 1% acetic acid) was added to each well and incubated for 10 minutes at room temperature. The SRB solution was removed and five milliQ washes were carried out. Then, 100 μL of 10 mM Tris solution was added to each well, and the dye was solubilised. Absorbance at 515 nm was read on plate reader. Data was normalized to Tz plate, as per NCI60 screening method (https://dtp.cancer.gov/discovery_development/nci-60/methodology.htm).

glioblastoma cells = test: Protein content after 48 hour incubation (Example 9); type: cell-based, human; conditions: 5, 25 and 100 μM
Method: FIGS. 10A-10B: Protein content of glioblastoma cells after 48 hour incubation with compound 138 or PA at 5, 25 and 100 μM final concentration. To indicates protein levels at the beginning of the test. Control indicates protein levels in cells which were incubated for 48 hours without exposure to 138 or PA.
(§1) Glioblastoma cells were used to determine viability and growth by measurement of protein levels. Protein content of glioblastoma cells was determined after 48 hour incubation with compound 138 or PA at 5, 25 and 100 μM final concentration. For To, protein levels were determined at the start of the test (before addition of test compounds). For the control, protein levels were determined for cells incubated for 48 hours in the absence of the test compounds. Astrocytes were used as a non-cancer cell line control. U87: this cell line has epithelial morphology that was isolated from malignant gliomas from a patient, likely with glioblastoma. SF188: this glioblastoma cell line was derived from the left temporal lobe tumour of a patient. U251: this cell line expresses epidermal growth factor receptor (EGFR) receptors, for inhibition studies. LN229: This cell line has a mutation on TP53; Simple; p.Pro98Leu. LN18: This cell line is negative for glial fibrillary acidic proteins and S100 (S-100) protein. […] GUVW cells were also utilised.

astrocytes = test: as above; type: cell-based, human; conditions: 5, 25 and 100 μM
Method: as §1

melanoma cell lines = conditions: previous results, read-out: concentration showing inhibition of 50% of the population; cited from earlier work

Structure (SMILES): CC1=CC(C)=[N+]2C1=Cc1ccc(CCCn3cc(CCNC(=O)/C=C/NC(=O)[C@@H](O)C(C)(C)CO)nn3)n1[B-]2(F)F [Compound 126, (E)-N-((((3-[4,4-Difluoro-5,7-dimethyl-4-bora-3a,4a-diaza-s-indacene-3-yl]propyl)-1H-1,2,3-triazol-4-yl)ethylamino)-3-oxoprop-1-enyl)-2,4-dihydroxy-3,3-dimethylbutanamide]
mean intensity compared to the 124 conjugate [1]: 25%
lower intensities than the R derivatives [2]: around 50%
times less uptake than 124 [3]: 5-12 times
time of highest uptake (Jurkat cells): 60 min
times lower than 124 uptake (Jurkat cells; 60 minutes): 4 times
uptake increase compared to DMSO control (Jurkat cells; 60 minutes): three times higher

protein content / protein levels (glioblastoma cells): little to no effect on protein levels
protein content / protein levels (astrocytes): little to no effect on protein levels
Structure (SMILES): CC(C)(CO)[C@@H](O)C(=O)N/C=C/C(=O)O [Compound 138, (R,E)-3-(2,4-Dihydroxy-3,3-dimethylbutanamido)acrylic acid]
viability / cell proliferation [4]: little to no effect on cell proliferation

Structure (SMILES): CC[P](CC)(CC)=[Au][S][C@@H]1O[C@H](COC(C)=O)[C@@H](OC(C)=O)[C@H](OC(C)=O)[C@H]1OC(C)=O [auranofin]
IC50 (melanoma cell lines): ≤ 500 nM

Structure (SMILES): CC(C)(CO)[C@@H](O)C(=O)NCCC(=O)O [pantothenic acid]
protein content / protein levels (glioblastoma cells): comparable content of proteins with the control; also recorded: little to no effect on protein levels
protein content / protein levels (astrocytes): comparable content of proteins with the control; also recorded: little to no effect on protein levels
